Values of other authors, collected in US20050266049A1, “Method for the covering of food with polyene antifungal compositions” (D S M IP Assets B.V., priority 2002, published 2005).

## C[C@@H]1C/C=C/C=C/C=C/C=C/[C@H](O[C@@H]2O[C@H](C)[C@@H](O)[C@H](N)[C@@H]2O)C[C@@H]2O[C@](O)(C[C@@H](O)C[C@H]3O[C@@H]3/C=C/C(=O)O1)C[C@H](O)[C@H]2C(=O)O [natamycin]
other
  solubility of natamycin in water: 30-50 ppm
Most foodborn fungi
  Minimal Inhibitory Concentration (MIC): less than 10 ppm
